# Entries after “also recorded” stand apart in the source; their conditions may differ.
# Columns and labels:
# Type in all cases: cell-based
# [1] = tested on: Malassezia furfur; test: Disc diffusion growth inhibition assay (supernatants); conditions: 6 mm discs soaked with 15 ul supernatant or ketoconazole 1 mg/ml in DMSO; soft agar lawn; 5 days incubation
# Description: (§1) FIG. 1|Inhibition assays of the fungicide ketoconazole as positive control for inhibition and Kazachstania unispora supernatant on M. sympodialis, M. furfur, M. restricts and M. globosa. Inhibition assays were performed using the disc diffusion method. Discs were soaked with ketoconazole (1 mg/ml) or K. unispora supernatant and placed on agar plates containing a soft layer inoculated with a single culture of the different Malassezia species to be tested.
# (§2) In order to identify strains inhibiting Malassezia growth, inhibition assays were performed using the disc diffusion method. This method consists in disposing discs imbibed with potential inhibitory substances on Petri plates containing a strain of interest. After optimal growth of the strain of interest, growth inhibition can be observed around discs soaked with substances having an inhibitory effect. Potential inhibitory substances tested in this experiment are supernatants obtained after individually culturing a collection of fungal and bacterial strains. After an incubation of 10 days in their optimal broth, each culture was centrifuged and the supernatant was filtered and further stored at −20° C. Ketoconazole, a fungicide, was used as a positive control for Malassezia growth inhibition. It was diluted in dimethyl sulfoxide at 1 mg/ml. The collection of supernatants was tested on the following species from the genus Malassezia: Malassezia restricta, Malassezia globosa, Malassezia furfur and Malassezia sympodialis. All strains were streaked from −80° C. stock on Modified Leeming and Notman (MLN) agar plates and incubated 10 days at 30° C. A 5 ml liquid culture of each species was made in MLN broth and incubated at 30° C. for 2 days for M. furfur and M. sympodialis and 5 days for M. restricta and M. globosa. To allow a lawn growth of the different Malassezia strains tested, Petri plates were prepared as follows: a bottom layer of 50 ml Modified Sabouraud Dextrose (MSD) agar was poured in Petri plates. The soft agar, constituting the top layer, was a mix of 12.5 ml MSD agar, 10.5 ml MLN broth and 2 ml of liquid culture. Plates were allowed to dry for one hour, then, 6 mm-diameter Whatman™ discs were soaked with 15 ul of each thawed supernatants and ketoconazole and placed on the soft agar plate containing the solidified Malassezia monoculture layer. After an incubation of 5 days, inhibition area could be easily observed around discs. As expected, ketoconazole inhibited all 4 Malassezia species tested in this experiment. […] The strain from which the inhibitory supernatant has been produced was further sequenced using the Sanger technology. The internal transcribed spacer (ITS) of this strain was taxonomically assigned to the yeast Kazachstania unispora (BLASTn, 99% identity, 99% query cover, e-value 0.00).
# [2] = tested on: Malassezia sympodialis; test: as above; conditions: 6 mm discs soaked with 15 ul supernatant or ketoconazole 1 mg/ml in DMSO; soft agar lawn; 5 days incubation
# Description: as §1, §2
# [3] = tested on: Malassezia restricta; test: as above; conditions: 6 mm discs soaked with 15 ul supernatant or ketoconazole 1 mg/ml in DMSO; soft agar lawn; 5 days incubation
# Description: as §1, §2
# [4] = tested on: Malassezia globosa; test: as above; conditions: 6 mm discs soaked with 15 ul supernatant or ketoconazole 1 mg/ml in DMSO; soft agar lawn; 5 days incubation
# Description: as §1, §2
# [5] = tested on: Malassezia restricta; test: Modified disc diffusion assay with living Acetobacter culture; conditions: 6 mm discs soaked with 15 ul exponentially growing Acetobacter culture or ketoconazole 1 mg/mL in DMSO; 5 days incubation
# Description: (§3) FIG. 1|Inhibition assays of M. restricts and M. globose by growth of Acetobacter fabarum. Discs were soaked with ketoconazole (1 mg/ml in DMSO) or exponentially growing Acetobacter fabarum culture and placed on agar plates containing a soft layer inoculated with a single culture of the different Malassezia species to be tested. In the upper panel, inhibition of Malassezia globosa is shown; in the bottom panel, Malassezia restricta is shown.
# (§4) In order to identify strains whose growth inhibits Malassezia, inhibition assays were performed using a modified disc diffusion method. This method is similar to the classical disk diffusion method that consists in depositing discs imbibed with potential inhibitory substances on Petri plates containing a strain of interest, except that the disks were imbibed with a living culture of an Acetobacter strain. After optimal growth of the strain of interest, growth inhibition can be observed around discs on which the growth of inhibitory bacteria has occurred. Ketoconazole (at 1 mg/mL in DMSO) was used as a positive control for Malassezia growth inhibition. The effect of growth of Acetobacter was tested on Malassezia restricta and Malassezia globosa. All Malassezia strains were streaked from −80° C. stock on Modified Leeming and Notman (MLN) agar plates and incubated 10 days at 30° C. […]
# [6] = tested on: Malassezia globosa; test: as above; conditions: 6 mm discs soaked with 15 ul exponentially growing Acetobacter culture or ketoconazole 1 mg/mL in DMSO; 5 days incubation
# Description: as §3, §4
smiles,measurement,setting,value
CC(=O)N1CCN(c2ccc(OCC3COC(Cn4ccnc4)(c4ccc(Cl)cc4Cl)O3)cc2)CC1 (stereo not drawn) [ketoconazole],growth inhibition (inhibition halo around disc) of Malassezia furfur,[1],inhibits growth; also recorded: inhibited
same,growth inhibition (inhibition halo around disc) of Malassezia sympodialis,[2],inhibits growth; also recorded: inhibited
same,growth inhibition (inhibition halo around disc) of Malassezia restricta,[3],inhibits growth; also recorded: inhibited
same,growth inhibition (inhibition halo around disc) of Malassezia globosa,[4],inhibits growth; also recorded: inhibited
same,growth inhibition (inhibition halo around disc) of Malassezia restricta,[5],inhibits growth; also recorded: inhibited
same,growth inhibition (inhibition halo around disc) of Malassezia globosa,[6],inhibits growth; also recorded: inhibited

# Source: patent publication US20230405057A1, “MEDICAL COMPOSITIONS AND THEIR USE IN TREATING INFLAMMATORY BOWEL DISEASE” (BIOMILLENIA SAS, priority 2019, published 2023)
